# US9549552B2, “Active compound combinations having insecticidal properties” (BAYER CROPSCIENCE AKTIENGESELLSCHAFT, priority 2013, dated 2017)
# What was measured:
# Format in all cases: in vivo
# Conditions in all cases: mortality
# [1] = test system: mustard beetle larvae (Phaedon cochleariae); assay: Phaedon cochleariae spray test (Example A2, cabbage leaves)
# Method: (§1) Solvent: 7 parts by weight of dimethylformamide
# (§2) Emulsifier: alkylaryl polyglycol ether
# (§3) To produce a suitable preparation of active compound, 1 part by weight of active compound is mixed with the stated amount of solvent and is diluted with water, containing an emulsifier concentration of 1000 ppm, to the desired concentration. Further test concentrations are prepared by dilution with emulsifier containing water Ammonium salt and/or penetration enhancer in a dosage of 1000 ppm are added to the desired concentration if necessary.
# Cabbage leaves (Brassica oleracea) are treated by being sprayed with the preparation of the active compound of the desired concentration and are infested with mustard beetle larvae (Phaedon cochleariae).
# After the specified period of time mortality in % is determined. 100% means all the beetle larvae have been killed and 0% means none of the beetle larvae have been killed. The mortality values determined thus are recalculated using the Colby-formula (see sheet 1).
# [2] = test system: two spotted spidermite (Tetranychus urticae); assay: Tetranychus urticae spray test, OP-resistant (Example B, French beans)
# Method: (§4) To produce a suitable preparation of active compound, 1 part by weight of active compound is mixed with the stated amount of solvent and emulsifier, and the concentrate is diluted with emulsifier-containing water to the desired concentration. To produce a suitable preparation of a spore suspension the spores are diluted with emulsifier-containing water to the desired concentration.
# French beans (Phaseolus vulgaris) which are heavily infested with all stages of the two spotted spidermite (Tetranychus urticae), are sprayed with a preparation of the active ingredient of the desired concentration.
# After the specified period of time, mortality in % is determined 100% means all spider mites have been killed and 0% means none of the spider mites have been killed. The mortality values determined thus are recalculated using the Colby-formula (see sheet 1).
# [3] = test system: fall armyworm larvae (Spodoptera frugiperda); assay: Spodoptera frugiperda spray test (Example C2, maize leaf sections)
# Method: as §3, with “solvents” for “solvent”, “water.” for “water Ammonium salt and/or penetration enhancer in a dosage of 1000 ppm are added to the desired concentration if necessary.”
# (§5) Maize (Zea mays) leaf sections are sprayed with a preparation of the active ingredient of the desired concentration. Once dry, the leaf sections are infested with fall armyworm larvae (Spodoptera frugiperda).
# (§6) After the specified period of time, mortality in % is determined 100% means all caterpillars have been killed and 0% means none of the caterpillars have been killed. The mortality values determined thus are recalculated using the Colby-formula (see sheet 1).
# [4] = test system: caterpillars of the fall army worm (Spodoptera frugiperda); assay: Spodoptera frugiperda spray test (Example C1, cotton leaves)
# Method: as §1, §2
# as §3, with “added” for “added to the desired concentration”
# Cotton leaves (Gossypium hirsutum) are treated by being sprayed with the preparation of the active compound of the desired concentration and are infested with caterpillars of the fall army worm (Spodoptera frugiperda).
# After the specified period of time mortality in % is determined. 100% means all the caterpillars have been killed and 0% means none of the caterpillars have been killed. The mortality values determined thus are recalculated using the Colby-formula (see sheet 1).
# [5] = test system: mustard beetle larvae (Phaedon cochleariae); assay: Phaedon cochleariae spray test (Example A1, Chinese cabbage leaf disks)
# Method: as §4
# Chinese cabbage (Brassica pekinensis) leaf-disks are sprayed with a preparation of the active ingredient of the desired concentration. Once dry, the leaf disks are infested with mustard beetle larvae (Phaedon cochleariae).
# (§7) After the specified period of time, mortality in % is determined 100% means all beetle larvae have been killed and 0% means none of the beetle larvae have been killed. The mortality values determined thus are recalculated using the Colby-formula (see sheet 1).
# [6] = test system: fall armyworm larvae (Spodoptera frugiperda); assay: Spodoptera frugiperda spray test (Example C3, maize leaf sections)
# Method: as §4, with “preparation of the active compound,” for “preparation of active compound,”
# as §5, §6
# [7] = test system: mustard beetle larvae (Phaedon cochleariae); assay: Phaedon cochleariae spray test (Example A3, Chinese cabbage leaf disks)
# Method: as §3, with “solvents” for “solvent”, “water.” for “water Ammonium salt and/or penetration enhancer in a dosage of 1000 ppm are added to the desired concentration if necessary.”
# Chinese cabbage (Brassica pekinensis) leaf disks are sprayed with a preparation of the active ingredient of the desired concentration. Once dry, the leaf disks are infested with mustard beetle larvae (Phaedon cochleariae).
# as §7
smiles,measurement,setting,value
Cc1cc(C(F)(C(F)(F)F)C(F)(F)F)ccc1NC(=O)c1cccc(Cl)c1C(=O)NC(C)(C)C#N [(I-5)],Efficacy in % after 2 d,[1]; 0.8 ppm,0%
same,Efficacy in % after 1 d,[1]; 1.6 ppm,0%
same,Efficacy in % after 6 d,[2]; 2 g ai/ha,0%
same,Efficacy in % after 6 d,[2]; 4 g ai/ha,0%
same,Efficacy in % after 6 d,[2]; 10 g ai/ha,0%
same,Efficacy in % after 2 d,[3]; 1 g ai/ha,0%
same,Efficacy in % after 6 d,[3]; 1 g ai/ha,33%
same,Efficacy in % after 2 d,[4]; 0.04 ppm,0%
same,Efficacy in % after 3 d,[4]; 0.04 ppm,0%
same,Efficacy in % after 2 d,[4]; 0.08 ppm,10%
same,Efficacy in % after 3 d,[4]; 0.08 ppm,20%
same,Efficacy in % after 6 d,[5]; 4 g ai/ha,0%
same,Efficacy in % after 6 d,[6]; 0.25 g ai/ha,0%
same,Efficacy in % after 6 d,[6]; 3 g ai/ha,33%
same,Efficacy in % after 6 d,[7]; 2 g ai/ha,0%
same,Efficacy in % after 2 d,[7]; 4 g ai/ha,0%
same,Efficacy in % after 6 d,[7]; 4 g ai/ha,0%
O=C(NC(=O)c1c(F)cccc1F)Nc1cc(Cl)c(Oc2ncc(C(F)(F)F)cc2Cl)c(Cl)c1 [Chlorfluazuron],Efficacy in % after 2 d,[3]; 2 g ai/ha,0%
same,Efficacy in % after 6 d,[3]; 2 g ai/ha,0%
same,Efficacy in % after 2 d,[4]; 0.4 ppm,0%
same,Efficacy in % after 3 d,[4]; 0.4 ppm,30%
same,Efficacy in % after 6 d,[7]; 8 g ai/ha,0%
COC(=O)N(C(=O)N1CO[C@@]2(C(=O)OC)Cc3cc(Cl)ccc3C2=N1)c1ccc(OC(F)(F)F)cc1 [Indoxacarb],Efficacy in % after 2 d,[3]; 0.1 g ai/ha,0%
same,Efficacy in % after 6 d,[3]; 0.1 g ai/ha,0%
same,Efficacy in % after 2 d,[4]; 0.2 ppm,10%
same,Efficacy in % after 3 d,[4]; 0.2 ppm,20%
same,Efficacy in % after 6 d,[7]; 4 g ai/ha,0%
same,Efficacy in % after 2 d,[7]; 8 g ai/ha,50%
same,Efficacy in % after 6 d,[7]; 8 g ai/ha,50%
CCOCn1c(-c2ccc(Cl)cc2)c(C#N)c(Br)c1C(F)(F)F [Chlorfenapyr],Efficacy in % after 2 d,[1]; 4 ppm,20%
same,Efficacy in % after 1 d,[1]; 8 ppm,5%
same,Efficacy in % after 3 d,[4]; 0.8 ppm,0%
same,Efficacy in % after 2 d,[4]; 1.6 ppm,0%
same,Efficacy in % after 6 d,[7]; 4 g ai/ha,0%
CCOC(=O)OC1=C(c2cc(C)ccc2C)C(=O)N[C@]12CC[C@@H](OC)CC2 [Spirotetramat],Efficacy in % after 6 d,[2]; 0.8 g ai/ha,30%
same,Efficacy in % after 6 d,[2]; 2 g ai/ha,20%
same,Efficacy in % after 6 d,[5]; 0.8 g ai/ha,0%
same,Efficacy in % after 6 d,[6]; 15 g ai/ha,0%
